What was measured:
Assay type in all cases: in vivo, human
healthy participants [1] = test: Critical flicker fusion task (CFF); settings: for CFF Median Ascending score / CFF Median Descending score: mean (SD)
Source text: (§1) The critical flicker fusion task (CFF; [30]) was used to test perceptual vigilance using the frequency of a flickering LED (between 12 and 50 Hz). The outcome variable for CFF is frequency (Hz) for ascending and descending trials. In the ascending trials, the participants pressed a button indicating when the light flickered to a speed where they appear to be continuously on or fused. In the descending trials, the participants pressed a button when the frequency of apparently fused lights is decreased such that lights begin to appear to be flashing.
(§2) Cognitive data: In this exploratory analysis, each outcome variable of the cognitive data was examined in a mixed model analysis of variance with one between-subjects factor of VU319 dose (0, 60, 120, 240, 400, 600 mg) and a within-subjects factor of testing session (pre-dose vs. post-dost administration). Post-hoc analysis compared each of the VU319 dose cohorts against the placebo group. Because the participants were healthy adults with normal cognitive function, we considered effects between no reductions in function to small improvement (d = 0.0–0.20) to be a positive result. For the food effect study, only the participants who received VU319 were examined due to the disproportionately small placebo group (n = 2). A within-subjects ANOVA including food condition (fasted/fed) and testing session (pre-dose vs. post-dose administration) was performed on each outcome variable.
as §1, with “(Kupke & Lewis, 1989))” for “[30])”, “12-50” for “12 and 50”

healthy participants [2] = test: Vital signs
Procedure: Safety and tolerability were assessed throughout the study via treatment emergent adverse event (TEAE) monitoring, vital signs (blood pressure, pulse rate, respiration rate, oral temperature), physical examinations, 12-lead ECGs, and clinical laboratory parameters including complete blood count (CBC), coagulation, hematology, clinical chemistry assessments, and urinalysis. Safety laboratory tests were drawn at pre-dose and at 5, 24, 36 and 144-hours post-dose for 60–400 mg Cohorts; and at 24, 48, 72 and 144-hours post-dose for the 600 mg and Food Effect Cohort. […] All adverse events (AEs) were assessed by the investigator for severity and relationship to study medication or study procedures.
All AEs were coded using the Medical Dictionary for Regulatory Activities (MedDRA) version 22.0. All AEs were listed, and the emergence of TEAEs were categorized by body system affected and analyzed to determine whether they were related to treatment. […] Assessment of the grade of toxicity or relation to the study drug for each adverse event was determined by the Investigator. […] Changes in vital signs from pre-dose to 48 h post-dose were placed into 10-time bins and assessed using mixed-measures ANOVA with the time bins as the within-subjects factor and dose as the between-subjects factor. […]

healthy participants [3] = test: Choice reaction time task (CRT); settings: for CRT Median Motor Time / CRT Median Recognition Time / CRT Median Total Time: mean (SD)
Source text: (§3) The choice reaction time (CRT; [31]) task was used to measure psychomotor speed. Outcome variables on the CRT were the median total reaction time, which can be broken down into the recognition time (time from stimulus onset to initiation of movement), and the motor reaction time (time from initiation of movement to stimulus termination).
as §2
as §3, with “(Hindmarch, 1984))” for “[31])”

[4] = Food effect study 120 mg, Fasting, Post-Drug
[5] = Food effect study 120 mg, Fasting, Pre-Drug
[6] = Food effect study 120 mg, Fed, Post-Drug
[7] = Food effect study 120 mg, Fed, Pre-Drug

Structure (SMILES): Cn1cc2c(-c3cc(F)c(CN4Cc5ncccc5C4=O)c(F)c3)cccc2n1 [VU319]
- CFF Median Ascending score (healthy participants [1]; [4]): 39.03 (5.2) Hz
- CFF Median Descending score (healthy participants [1]; [4]): 38.59 (4.57) Hz
- CFF Median Ascending score (healthy participants [1]; [5]): 34.62 (9.06) Hz
- CFF Median Descending score (healthy participants [1]; [5]): 38.49 (5.19) Hz
- CFF Median Ascending score (healthy participants [1]; [6]): 39.29 (4.38) Hz
- CFF Median Descending score (healthy participants [1]; [6]): 39.36 (4.08) Hz
- CFF Median Ascending score (healthy participants [1]; [7]): 39.09 (5.81) Hz
- CFF Median Descending score (healthy participants [1]; [7]): 39.25 (3.25) Hz
- CFF Median Ascending score (healthy participants [1]; SAD study, 60 mg, Post-Drug): 37.67 (3.1) Hz
- CFF Median Descending score (healthy participants [1]; SAD study, 60 mg, Post-Drug): 38.32 (7.51) Hz
- CFF Median Ascending score (healthy participants [1]; SAD study, 60 mg, Pre-Drug): 36.32 (4.6) Hz
- CFF Median Descending score (healthy participants [1]; SAD study, 60 mg, Pre-Drug): 37 (5.35) Hz
- CFF Median Ascending score (healthy participants [1]; SAD study, 120 mg, Post-Drug): 36.53 (3.87) Hz
- CFF Median Descending score (healthy participants [1]; SAD study, 120 mg, Post-Drug): 38.68 (3.31) Hz
- CFF Median Ascending score (healthy participants [1]; SAD study, 120 mg, Pre-Drug): 37.33 (2.38) Hz
- CFF Median Descending score (healthy participants [1]; SAD study, 120 mg, Pre-Drug): 40.23 (4.95) Hz
- CFF Median Ascending score (healthy participants [1]; SAD study, 240 mg, Post-Drug): 38.12 (4.1) Hz
- CFF Median Descending score (healthy participants [1]; SAD study, 240 mg, Post-Drug): 37.25 (6.89) Hz
- CFF Median Ascending score (healthy participants [1]; SAD study, 240 mg, Pre-Drug): 32.72 (9.97) Hz
- CFF Median Descending score (healthy participants [1]; SAD study, 240 mg, Pre-Drug): 37.1 (6.52) Hz
- CFF Median Ascending score (healthy participants [1]; SAD study, 400 mg, Post-Drug): 39.98 (3.97) Hz
- CFF Median Descending score (healthy participants [1]; SAD study, 400 mg, Post-Drug): 40.05 (3.01) Hz
- CFF Median Ascending score (healthy participants [1]; SAD study, 400 mg, Pre-Drug): 37.92 (3.7) Hz
- CFF Median Descending score (healthy participants [1]; SAD study, 400 mg, Pre-Drug): 39.67 (2.1) Hz
- CFF Median Ascending score (healthy participants [1]; SAD study, 600 mg, Post-Drug): 36.58 (3.14) Hz
- CFF Median Descending score (healthy participants [1]; SAD study, 600 mg, Post-Drug): 39.73 (5.18) Hz
- CFF Median Ascending score (healthy participants [1]; SAD study, 600 mg, Pre-Drug): 35.45 (3.61) Hz
- CFF Median Descending score (healthy participants [1]; SAD study, 600 mg, Pre-Drug): 39.22 (5.92) Hz
- CFF ascending trial, effect of dose (healthy participants [1]; SAD study, both p > 0.3): no effect of dose, nor a dose by time interaction
- CFF ascending condition, post- vs pre-dose, effect size d (healthy participants [1]; food effect study, 120 mg, p = 0.07): 1.37
- vitals measurements over the first 48 h post-dose (healthy participants [2]; SAD study): no significant dose-by-time interactions
- vitals measurements over the first 48 h post-dose (healthy participants [2]; food effect study): no significant dose-by-time interactions
- CRT Median Motor Time (healthy participants [3]; [4]): 299.2 (24.19) ms
- CRT Median Recognition Time (healthy participants [3]; [4]): 370.55 (33.17) ms
- CRT Median Total Time (healthy participants [3]; [4]): 679.55 (35.68) ms
- CRT Median Motor Time (healthy participants [3]; [5]): 302 (40.02) ms
- CRT Median Recognition Time (healthy participants [3]; [5]): 384.9 (53.58) ms
- CRT Median Total Time (healthy participants [3]; [5]): 691.25 (64.17) ms
- CRT Median Motor Time (healthy participants [3]; [6]): 297.25 (36.2) ms
- CRT Median Recognition Time (healthy participants [3]; [6]): 369.4 (41.57) ms
- CRT Median Total Time (healthy participants [3]; [6]): 673.65 (47.86) ms
- CRT Median Motor Time (healthy participants [3]; [7]): 321.5 (36.67) ms
- CRT Median Recognition Time (healthy participants [3]; [7]): 365.45 (41.27) ms
- CRT Median Total Time (healthy participants [3]; [7]): 695.7 (47.32) ms
- CRT Median Motor Time (healthy participants [3]; SAD study, 60 mg, Post-Drug): 330.42 (64.58) ms
- CRT Median Recognition Time (healthy participants [3]; SAD study, 60 mg, Post-Drug): 394.92 (82.56) ms
- CRT Median Total Time (healthy participants [3]; SAD study, 60 mg, Post-Drug): 734.25 (120.68) ms
- CRT Median Motor Time (healthy participants [3]; SAD study, 60 mg, Pre-Drug): 331.08 (35.75) ms
- CRT Median Recognition Time (healthy participants [3]; SAD study, 60 mg, Pre-Drug): 391.33 (59.93) ms
- CRT Median Total Time (healthy participants [3]; SAD study, 60 mg, Pre-Drug): 735.08 (60.61) ms
- CRT Median Motor Time (healthy participants [3]; SAD study, 120 mg, Post-Drug): 332.67 (89.6) ms
- CRT Median Recognition Time (healthy participants [3]; SAD study, 120 mg, Post-Drug): 389 (43.6) ms
- CRT Median Motor Time (healthy participants [3]; SAD study, 120 mg, Pre-Drug): 329.08 (80.22) ms
- CRT Median Recognition Time (healthy participants [3]; SAD study, 120 mg, Pre-Drug): 384.92 (42.09) ms
- CRT Median Total Time (healthy participants [3]; SAD study, 120 mg, Pre-Drug): 718.58 (103.36) ms
- CRT Median Motor Time (healthy participants [3]; SAD study, 240 mg, Post-Drug): 353.25 (69.11) ms
- CRT Median Recognition Time (healthy participants [3]; SAD study, 240 mg, Post-Drug): 399 (83.54) ms
- CRT Median Total Time (healthy participants [3]; SAD study, 240 mg, Post-Drug): 759.42 (151.55) ms
- CRT Median Motor Time (healthy participants [3]; SAD study, 240 mg, Pre-Drug): 374.58 (64.5) ms
- CRT Median Recognition Time (healthy participants [3]; SAD study, 240 mg, Pre-Drug): 410.5 (68.61) ms
- CRT Median Total Time (healthy participants [3]; SAD study, 240 mg, Pre-Drug): 800.92 (121.25) ms
- CRT Median Motor Time (healthy participants [3]; SAD study, 400 mg, Post-Drug): 334.33 (33) ms
- CRT Median Recognition Time (healthy participants [3]; SAD study, 400 mg, Post-Drug): 388.17 (40.47) ms
- CRT Median Total Time (healthy participants [3]; SAD study, 400 mg, Post-Drug): 728.92 (57.1) ms
- CRT Median Motor Time (healthy participants [3]; SAD study, 400 mg, Pre-Drug): 331 (38.55) ms
- CRT Median Recognition Time (healthy participants [3]; SAD study, 400 mg, Pre-Drug): 396.67 (41.84) ms
- CRT Median Total Time (healthy participants [3]; SAD study, 400 mg, Pre-Drug): 731 (55.14) ms
- CRT Median Motor Time (healthy participants [3]; SAD study, 600 mg, Post-Drug): 282.33 (56.95) ms
- CRT Median Recognition Time (healthy participants [3]; SAD study, 600 mg, Post-Drug): 362.67 (52.01) ms
- CRT Median Total Time (healthy participants [3]; SAD study, 600 mg, Post-Drug): 649.58 (71.76) ms
- CRT Median Motor Time (healthy participants [3]; SAD study, 600 mg, Pre-Drug): 291.42 (46.98) ms
- CRT Median Recognition Time (healthy participants [3]; SAD study, 600 mg, Pre-Drug): 364.92 (18.0) ms
- CRT Median Total Time (healthy participants [3]; SAD study, 600 mg, Pre-Drug): 662.17 (61.66) ms
- CRT total, recognition and motor time, effect of dose (healthy participants [3]; SAD study, all p > 0.1): no effect of dose, session, nor a dose by session interaction
- CRT recognition time, food condition by session interaction, effect size d (healthy participants [3]; food effect study, 120 mg, p = 0.027, quicker recognition post-dose in fasted condition): 1.76
